The values below come from patent publication US20260102383A1, “LPAR1 Inhibitors” (AbbVie Inc., priority 2024, published 2026).

The structures appear in SMILES notation.

T1 sequence (Q92633 whole entry): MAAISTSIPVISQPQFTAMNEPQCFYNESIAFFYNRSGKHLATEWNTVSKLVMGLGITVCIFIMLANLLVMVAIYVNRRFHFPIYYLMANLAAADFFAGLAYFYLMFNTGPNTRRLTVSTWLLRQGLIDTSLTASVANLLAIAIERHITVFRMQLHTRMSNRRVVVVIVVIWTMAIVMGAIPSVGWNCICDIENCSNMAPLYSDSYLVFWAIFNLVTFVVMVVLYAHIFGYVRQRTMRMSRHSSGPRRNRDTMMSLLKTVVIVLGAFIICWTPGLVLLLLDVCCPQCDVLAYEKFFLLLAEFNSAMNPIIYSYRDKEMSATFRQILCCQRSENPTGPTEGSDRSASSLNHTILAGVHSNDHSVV

The first assay has as its target T1, human LPAR1 (Homo sapiens, UniProt Q92633).
T1 construct: host or cells: TangoEDG2-bla U2OS cells
Nature of the assay: Arrestin assay (Arrestin Reporter EDG2-bla U2OS), inhibition of LPA-stimulated signal. The settings on record: TangoEDG2-bla U2OS cells expressing human LPAR1; 0.25 μM LPA; read-out: Arrestin Reporter EDG2-bla U2OS Human IC50. It counts as cell-based. Put shortly:
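IC50 comes from a variable-slope 4-parameter fit of % inhibition, calculated from the beta-lactamase FRET ratio (emission 460/530 nm, excitation 409 nm, 2 h development at RT). Compounds, 10 μM down to 0.00006 μM in 3-fold steps, were given 1 h before 0.25 μM final LPA for 3 h in TangoEDG2-bla U2OS cells.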
A word on the IC50: it is the concentration at which inhibition is half-maximal. Turning to `COC[C@@H](CN1CCC(C(=O)Nc2ccc(Cl)cc2OC(F)F)(n2ncc(F)c2C(C)C)CC1)C(=O)O` [Compound 169, (2R)-2-[[4-[[4-chloro-2-(difluoromethoxy)phenyl]carbamoyl]-4-(4-fluoro-5-isopropyl-pyrazol-1-yl)-1-piperidyl]methyl]-3-methoxy-propanoic acid], the IC50 was 26.2 nM.

The assay is the same for the next values; noted with them: TangoEDG2-bla U2OS cells expressing human LPAR1; 0.25 μM LPA; read-out: Arrestin Reporter EDG2-bla U2OS Human Merged IC50.
Regarding `CC(C)c1c(F)cnn1C1(C(=O)Nc2ccc(Cl)cc2OC(F)F)CCN(C[C@]2(C(=O)O)CC[C@@H](O)CC2)CC1` [Compound 162, (1s,4s)-1-[[4-[[4-chloro-2-(difluoromethoxy)phenyl]carbamoyl]-4-(4-fluoro-5-isopropyl-pyrazol-1-yl)-1-piperidyl]methyl]-4-hydroxy-cyclohexanecarboxylic acid], the IC50 was 51.8 nM.
As to `CC(C)c1ccnn1C1(C(=O)Nc2ccc(Cl)cc2OC(F)F)CCN([C@H]2C[C@](O)(C(=O)O)C2)CC1` [Compound 164, (1s,3s)-3-[4-[[4-chloro-2-(difluoromethoxy)phenyl]carbamoyl]-4-(5-isopropylpyrazol-1-yl)-1-piperidyl]-1-hydroxy-cyclobutanecarboxylic acid], the IC50 amounted to 72.4 nM.
`CC(C)c1ccnn1C1(C(=O)Nc2ccc(Cl)cc2OC(F)F)CCN(C[C@@H](C(=O)O)N2CCOC(C)(C)C2)CC1` [Compound 165, (2S)-3-[4-[[4-chloro-2-(difluoromethoxy)phenyl]carbamoyl]-4-(5-isopropylpyrazol-1-yl)-1-piperidyl]-2-(2,2-dimethylmorpholin-4-yl)propanoic acid]: the IC50 is 137 nM.
Still for that read-out and setting: with `CC(C)c1ccnn1C1(C(=O)Nc2ccc(Cl)cc2OC(F)F)CCN(C[C@H](C(=O)O)N2CCOC(C)(C)C2)CC1` [Compound 166] the figure was 120 nM.
In the case of `CC(C)c1ccnn1C1(C(=O)Nc2ccc(Cl)cc2OC(F)F)CCN(C[C@@H](C(=O)O)N2C[C@H](C)O[C@@H](C)C2)CC1` [Compound 167, (2S)-3-[4-[[4-chloro-2-(difluoromethoxy)phenyl]carbamoyl]-4-(5-isopropylpyrazol-1-yl)-1-piperidyl]-2-[(2S,6S)-2,6-dimethylmorpholin-4-yl]propanoic acid], the IC50 turned out to be 108 nM.
Still for that read-out and setting: for `CC(C)c1ccnn1C1(C(=O)Nc2ccc(Cl)cc2OC(F)F)CCN(C[C@@H](CC#N)C(=O)O)CC1` [Compound 168, (2R)-2-[[4-[[4-chloro-2-(difluoromethoxy)phenyl]carbamoyl]-4-(5-isopropylpyrazol-1-yl)-1-piperidyl]methyl]-3-cyano-propanoic acid] the value was 28.8 nM.
On the same count and under the same terms, for `CC(C)c1ccnn1C1(C(=O)Nc2ccc(Cl)cc2OC(F)F)CCN(CC(C(=O)O)C2CCOC(C)(C)C2)CC1` (stereo not shown) [Compound 171, 3-[4-[[4-chloro-2-(difluoromethoxy)phenyl]carbamoyl]-4-(5-isopropylpyrazol-1-yl)-1-piperidyl]-2-(2,2-dimethyltetrahydropyran-4-yl)propanoic acid] the value was 92.6 nM; for `CC(C)c1ccnn1C1(C(=O)Nc2ccc(Cl)cc2OC(F)F)CCN(C[C@@]2(C(=O)O)CCOC(C)(C)C2)CC1` [Compound 172, (4R)-4-[[4-[[4-chloro-2-(difluoromethoxy)phenyl]carbamoyl]-4-(5-isopropylpyrazol-1-yl)-1-piperidyl]methyl]-2,2-dimethyl-tetrahydropyran-4-carboxylic acid], 71 nM; for `CC(C)c1ccnn1C1(C(=O)Nc2ccc(Cl)cc2OC(F)F)CCN(C[C@]2(C(=O)O)CCOC(C)(C)C2)CC1` [Compound 173, (4S)-4-[[4-[[4-chloro-2-(difluoromethoxy)phenyl]carbamoyl]-4-(5-isopropylpyrazol-1-yl)-1-piperidyl]methyl]-2,2-dimethyl-tetrahydropyran-4-carboxylic acid], 31 nM.
